The first assay has as its system wheat. The assay is described as follows: Evaluation Example 10: Comparison of Elongated Plant Height of Wheat. Format: in vivo. As to conditions: petri dish, 5 mL, 24° C, 7th day after seeding, EGT 0.5 mM and/or component (A) 0.5 mM. As for the experimental part:
The plant growth regulators of Examples 23 to 26 and Comparative Examples 32 to 36 were prepared so as to attain the concentrations indicated in Table 10 below. EGT, GABA, ornithine, carnitine and maleic acid were commercially available products, and pure water was used as a solvent.
(§1) Into a 9 cm petri dish on which filter paper was spread, 5 mL of the plant growth regulator was added. Ten seeds of wheat were sown per one petri dish. In a thermostatic chamber set at room temperature of 24° C., the light period was 16 hours and the dark period was 8 hours. The light conditions were set using a fluorescent lamp (PLANT FLEC, 40 W LED fluorescent lamp for plant growth, electric bulb color, available from Nippon Medical and Chemical Instruments Co., Ltd.) such that the light intensity was 5000 lx in the central part under irradiation with the fluorescent lamp.
(§2) The plant height of the wheat on the 7th day after seeding was evaluated.
For the compound `NCCC[C@H](N)C(=O)O` [compound 34, ornithine], the “Elongated plant height, ratio to untreated control” value (“Elongated plant height, ratio” below) is listed as 0.9.
Still for that read-out and setting: under `C[N+](C)(C)CC(O)CC(=O)[O-]` (stereo not shown) [compound 35, carnitine] stands 0.9; under `O=C(O)/C=C\C(=O)O` [compound 36, maleic acid], 0.9; under `NCCCC(=O)O` [compound 33, γ-aminobutyric acid], 1.0.
In the case of `C[N+](C)(C)[C@@H](Cc1c[nH]c(=S)[nH]1)C(=O)[O-]` [Comparative Example 32, L-(+)-ergothioneine], the “Elongated plant height, ratio” value was found to be 1.1.

For the next assay, the system named is wheat. The assay is described as follows: Evaluation Example 11: Comparison of Elongated Plant Height of Wheat. Format: in vivo. Conditions: petri dish, 5 mL, 24° C, 7th day after seeding, EGT 0.5 mM and/or component (A) 0.1 mM (vitamin D2 0.01 mM). As for the experimental part:
The plant growth regulators of Examples 27 to 31 and Comparative Examples 37 to 42 were prepared so as to attain the concentrations indicated in Table 11 below. EGT, Met, His, Cys, 5-ALA and vitamin D2 were commercially available products, and pure water was used as a solvent.
as §1, §2
On to `N[C@@H](CS)C(=O)O` [compound 40, L-cysteine], for which the “Elongated plant height, ratio” value was 1.0.
Still for that read-out and setting: under `CSCC[C@H](N)C(=O)O` [compound 38, L-methionine] stands 0.8; under `C=C1CC[C@H](O)C/C1=C/C=C1\CCC[C@]2(C)[C@@H]([C@H](C)/C=C/[C@H](C)C(C)C)CC[C@@H]12` [compound 42, vitamin D2], 0.9; under `N[C@@H](Cc1c[nH]cn1)C(=O)O` [compound 39, L-histidine], 1.0.
Same read-out and setting: under `C[N+](C)(C)[C@@H](Cc1c[nH]c(=S)[nH]1)C(=O)[O-]` [Comparative Example 37, L-(+)-ergothioneine] stands 1.1.
On the same count and under the same terms, then `NCC(=O)CCC(=O)O` [compound 41, 5-aminolevulinic acid], with 0.9.

In a further assay the test system is rapeseed. The assay is described as follows: Evaluation Example 5: Comparison of Elongated Plant Height of Rapeseed. Format: in vivo. Conditions: petri dish, 5 mL, 25° C, 7th day after seeding, EGT 0.5 mM and/or component (A) 0.5 mM. As for the experimental part:
The plant growth regulators of Examples 9 to 13 and Comparative Examples 13 to 18 were prepared so as to attain the concentrations indicated in Table 5 below. EGT, Gln, Trp, Met, Phe and acetic acid were commercially available products, and pure water was used as a solvent.
(§3) Into a 9 cm petri dish on which filter paper was spread, 5 mL of the plant growth regulator was added. Ten seeds of rapeseed were sown per one petri dish. In a growth chamber set at room temperature of 25° C., the light period was 16 hours and the dark period was 8 hours. The light conditions were set such that the light intensity was 5000 lx in the central part under irradiation with the fluorescent lamp.
(§4) The plant height of the rapeseed on the 7th day after seeding was evaluated.
For `N[C@@H](Cc1c[nH]c2ccccc12)C(=O)O` [compound 15, L-tryptophan], the “Elongated plant height, ratio” value amounted to 0.5.
The same measure, in the same setting: then `CC(=O)O` [compound 18, acetic acid], with 1.1.
The same measure, in the same setting: under `CSCC[C@H](N)C(=O)O` [compound 16, L-methionine] stands 1.0; under `N[C@@H](Cc1ccccc1)C(=O)O` [compound 17, L-phenylalanine], 1.1.
The same measure, in the same setting: under `NC(=O)CC[C@H](N)C(=O)O` [compound 14, L-glutamine] stands 1.1.
Take `C[N+](C)(C)[C@@H](Cc1c[nH]c(=S)[nH]1)C(=O)[O-]` [Comparative Example 13, L-(+)-ergothioneine]: the “Elongated plant height, ratio” value came out at 1.1.

The next assay has as its system rapeseed. The assay is described as follows: Evaluation Example 6: Comparison of Elongated Plant Height of Rapeseed. Format: in vivo. Conditions: petri dish, 5 mL, 25° C, 7th day after seeding, EGT 0.5 mM and/or component (A) 0.5 mM. As for the experimental part:
The plant growth regulators of Examples 14 to 17 and Comparative Examples 19 to 23 were prepared so as to attain the concentrations indicated in Table 6 below. EGT, Leu, Val, Tyr and Ser were commercially available products, and pure water was used as a solvent.
as §3, §4
With `C[N+](C)(C)[C@@H](Cc1c[nH]c(=S)[nH]1)C(=O)[O-]` [Comparative Example 19, L-(+)-ergothioneine], the “Elongated plant height, ratio” value worked out at 1.1.
The same measure, in the same setting: then `N[C@@H](Cc1ccc(O)cc1)C(=O)O` [compound 22, L-tyrosine], with 1.0.
Still for that read-out and setting: then `N[C@@H](CO)C(=O)O` [compound 23, L-serine], with 1.0; and `CC(C)[C@H](N)C(=O)O` [compound 21, L-valine], with 1.0.
As for `CC(C)C[C@H](N)C(=O)O` [compound 20, L-leucine], the “Elongated plant height, ratio” value amounted to 1.0.

The subject of a further assay is tomato (Regina). As to the kind of experiment: Evaluation Example 14: Comparison of Number of Fruits and Total Fruit Weight of Tomato. Format: in vivo. Conditions: 50 mL on 32nd, 34th, 36th days, fruits ≥20 mm collected 75th day after seeding, EGT 0.1 mM and/or Arg 0.1 mM. As for the experimental part: The plant growth regulators of Example 35 and Comparative Examples 48 and 49 were prepared so as to attain the concentrations indicated in Table 14 below. EGT and Arg were commercially available products, and pure water was used as a solvent.
In a plastic pot having a diameter of 135 mm and a height of 110 mm, 1 kg of granular soil (Kumiai horticultural soil) was placed, and one individual tomato (Regina) was sown per one pot.
The tomato was managed in a greenhouse set at room temperature of 25° C. Chemical treatment was started 5 weeks after seeding. More specifically, on the 32nd, 34th, and 36th days after seeding, 50 mL of the plant growth regulator was added.
On the 75th day after seeding, fruits having a diameter of 20 mm or greater were collected, and the number and total weight of the collected fruits were evaluated.
`N=C(N)NCCC[C@H](N)C(=O)O` [Comparative Example 49, L-arginine]: the “Number of fruits, ratio to untreated control” value turned out to be 1.0 and the “Total fruit weight, ratio to untreated control” value came to 0.9.
`C[N+](C)(C)[C@@H](Cc1c[nH]c(=S)[nH]1)C(=O)[O-]` [Comparative Example 48, L-(+)-ergothioneine]: the “Number of fruits, ratio to untreated control” value turned out to be 1.2 and the “Total fruit weight, ratio to untreated control” value turned out to be 1.2.

Another assay concerns wheat. The assay is described as follows: Evaluation Example 17: Comparison of Elongated Plant Height of Wheat. Format: in vivo. Conditions: petri dish, 5 mL, 24° C, 7th day after seeding, EGT 1 mM and/or uracil 0.01, 0.1 or 10 mM. As for the experimental part:
The plant growth regulators of Examples 39 to 41 and Comparative Examples 55 to 58 were prepared so as to attain the concentrations indicated in Table 17 below. EGT and uracil were commercially available products, and pure water was used as a solvent.
as §1, §2
On to `O=c1cc[nH]c(=O)[nH]1` [compound 58, uracil], for which the “Elongated plant height, ratio” value is recorded as 1.0.
Take `O=c1cc[nH]c(=O)[nH]1` [compound 56, uracil]: the “Elongated plant height, ratio” value came to 1.1.
Same read-out and setting: under `C[N+](C)(C)[C@@H](Cc1c[nH]c(=S)[nH]1)C(=O)[O-]` [Comparative Example 55, L-(+)-ergothioneine] stands 1.1; under `O=c1cc[nH]c(=O)[nH]1` [compound 57, uracil], 1.0.

A further assay concerns radish (Akamaru Hatsuka). As to the kind of experiment: Evaluation Example 13: Comparison of Aboveground Part Weight and Underground Part Weight of Radish. Format: in vivo. Conditions: 50 mL on 15th, 17th, 20th days, evaluated 27th day after seeding, EGT 0.5 mM and/or Glu 0.5 mM. As for the experimental part:
The plant growth regulators of Example 34 and Comparative Examples 46 and 47 were prepared so as to attain the concentrations indicated in Table 13 below. EGT and Glu were commercially available products, and pure water was used as a solvent.
In a plastic pot having a diameter of 105 mm and a height of 90 mm, 450 g of granular soil (Kumiai horticultural soil) was placed, and one individual radish (Akamaru Hatsuka) was sown per one pot.
The radish was managed in a greenhouse set at room temperature of 25° C. Chemical treatment was started 2 weeks after seeding. More specifically, on the 15th, 17th, and 20th days after seeding, 50 mL of the plant growth regulator was added.
On the 27th day after seeding, the aboveground part weight and underground part weight were evaluated.
`N[C@@H](CCC(=O)O)C(=O)O` [Comparative Example 47, L-glutamic acid]: the “Aboveground part weight, ratio to untreated control” value is on record as 1.1 and the “Underground part weight, ratio to untreated control” value worked out at 1.1.
`C[N+](C)(C)[C@@H](Cc1c[nH]c(=S)[nH]1)C(=O)[O-]` [Comparative Example 46, L-(+)-ergothioneine]: the “Aboveground part weight, ratio to untreated control” value was 1.1 and the “Underground part weight, ratio to untreated control” value was 1.1.

A further assay concerns Arabidopsis thaliana (Col-0). The assay is described as follows: Evaluation Example 2: Comparison of Seed Yield of Arabidopsis thaliana. Format: in vivo. Conditions: 50 mL added on 8th, 10th, 12th, 14th days after seeding; harvest 89th day; EGT 1 mM and/or component (A) 0.1 mM. As for the experimental part: The plant growth regulators of Examples 3 to 5 and Comparative Examples 4 to 7 were prepared so as to attain the concentrations indicated in Table 2 below. EGT, citric acid, GB and GSSG were commercially available products, and pure water was used as a solvent.
One individual Arabidopsis thaliana (Col-0) was sown in a plastic pot having a diameter of 60 mm and a height of 55 mm. Plastic deep dishes each having a diameter of 160 mm and a height of 28 mm were prepared, and six pots were respectively placed therein. As soil, 45 mL of vermiculite, 22.5 mL of granular soil (Kumiai horticultural soil), and 22.5 mL of vermiculite were placed in the pot in this order.
In a growth chamber set at room temperature of 22° C., the light period was 16 hours and the dark period was 8 hours. The light conditions were set such that the light intensity was 5000 lx in the central part under irradiation with the fluorescent lamp. Water supply was conducted from the bottom, and the water level was set at about 5 mm. Chemical treatment was started […]. More specifically, on the 8th, 10th, 12th, and 14th days after seeding, 50 mL of the plant growth regulator was added instead of water supply.
On the 89th day after seeding, seeds were harvested, and the seed yield was evaluated.
With `C[N+](C)(C)[C@@H](Cc1c[nH]c(=S)[nH]1)C(=O)[O-]` [Comparative Example 4, L-(+)-ergothioneine], the “Seed yield, ratio to untreated control” value worked out at 1.2.
The same measure, in the same setting: under `C[N+](C)(C)CC(=O)[O-]` [compound 6, glycine betaine] stands 1.0; under `O=C(O)CC(O)(CC(=O)O)C(=O)O` [Comparative Example 5, citric acid], 0.8.
